Data published in patent publication US20070037788A1, “Tricyclic steroid hormone nuclear receptor modulators” (Eli Lilly and Company, priority 2003, published 2007).

target: T1, human MR (Homo sapiens, UniProt P08235); assay: Mineralocorticoid Receptor Binding Assay (Method 1); conditions: [3H]-aldosterone
T1 construct: The full length human MR gene is cloned from a human kidney or human brain cDNA library; made in house; host or cells: SF9 insect cells (baculovirus)
T1 sequence (P08235 1-984): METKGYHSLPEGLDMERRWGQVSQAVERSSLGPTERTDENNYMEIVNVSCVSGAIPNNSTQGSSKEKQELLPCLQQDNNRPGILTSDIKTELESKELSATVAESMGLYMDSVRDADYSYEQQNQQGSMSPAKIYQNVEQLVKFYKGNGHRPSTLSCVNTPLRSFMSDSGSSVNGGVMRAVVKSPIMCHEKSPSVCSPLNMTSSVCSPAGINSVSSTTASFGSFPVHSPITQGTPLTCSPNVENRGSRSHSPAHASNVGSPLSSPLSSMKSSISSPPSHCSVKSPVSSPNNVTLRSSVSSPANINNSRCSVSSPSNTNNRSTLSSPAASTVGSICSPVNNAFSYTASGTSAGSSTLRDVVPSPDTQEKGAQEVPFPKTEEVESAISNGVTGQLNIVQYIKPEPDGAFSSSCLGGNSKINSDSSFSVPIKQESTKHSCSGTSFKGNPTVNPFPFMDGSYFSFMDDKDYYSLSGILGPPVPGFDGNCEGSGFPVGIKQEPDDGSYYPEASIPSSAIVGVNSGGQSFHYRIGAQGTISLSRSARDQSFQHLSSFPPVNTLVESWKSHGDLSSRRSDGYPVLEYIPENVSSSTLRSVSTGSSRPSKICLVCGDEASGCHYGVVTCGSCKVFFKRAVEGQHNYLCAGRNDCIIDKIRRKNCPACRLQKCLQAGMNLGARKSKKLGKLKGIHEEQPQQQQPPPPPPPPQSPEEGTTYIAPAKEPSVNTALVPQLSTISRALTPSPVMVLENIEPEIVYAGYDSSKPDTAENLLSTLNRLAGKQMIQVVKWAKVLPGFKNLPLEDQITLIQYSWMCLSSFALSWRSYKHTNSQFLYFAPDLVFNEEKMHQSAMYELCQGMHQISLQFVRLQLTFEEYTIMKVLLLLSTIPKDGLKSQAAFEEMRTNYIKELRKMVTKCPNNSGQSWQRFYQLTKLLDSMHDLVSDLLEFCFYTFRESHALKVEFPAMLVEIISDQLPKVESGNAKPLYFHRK
Method: The full length human MR gene is cloned from a human kidney or human brain cDNA library. Briefly, using synthetic oligonucleotide primers (Eli Lilly and Company, Indianapolis) directed to nucleotides 20-54 and 3700-3666 of the human MR, polymerase chain reaction (PCR) is performed under standard conditions using a human cDNA library. The PCR reaction is performed in a final volume of 50 μl containing about 1 μl of a 50× stock solution of polymerase; about 1 μl of a 50× stock solution of DNTP; about 5 μl of an appropriate PCR buffer; about 1 μl of each primer; about 5 μl of a H. kidney or H. brain cDNA library; and about 36 μl of water. The reaction is allowed to denature for about 30 seconds at 95 degrees Celsius, anneal for about 30 seconds at 55 degrees Celsius, and extend for about 5 minutes at 72 degrees Celsius, the sequence being repeated for a total of about 35 cycles. The desired PCR product (3.68 Kb) is confirmed by gel electrophoresis and subsequently cut from the gel and stored at about −20 degrees Celsius until extraction. To extract the cDNA product from the agarose gel, the QIAEX II Gel Extraction protocol (QIAGEN, Inc.) is employed according to the manufacturer's instructions. Following extraction, the MR cDNA is cloned into an appropriate cloning vector (Zero Blunt TOPO PCR Cloning Kit (Invitrogen, Inc.) and a pAcHLT-baculovirus transfer vector (B.D./Pharminogen), then expressed in SF9 insect cells, essentially according to manufacturer's instructions. Sf9 cells are grown at a scale where gram quantity cell pellets are obtained for subsequent use in the MR binding assay. Harvested cell pellets are lysed by repeated freeze-thaw cycles (about 4) in a suitable lysis buffer then centrifuged at about 1×10^3 G (with the supernatant being saved for future assays).
MR binding assays are performed in a final total volume of about 250 μl containing about 20-25 μg of protein and 0.5 nM of [^3H]-aldosterone plus varying concentrations of test compound or vehicle. The assay binding buffer consists of 30 mM sodium molybdate, 30 mM of TRIS-HCl, 5 mM sodium phosphate, 5 mM sodium pyrophosphate, and about 10% glycerol, pH=7.5.
Briefly, assays are prepared at RT in 96-well Falcon 3072 plates, each well containing 210 μl of binding buffer, 10 μl of [^3H]-aldosterone, 10 μl of test compound/vehicle, and 20 μl of the resuspended receptor protein extract. Incubations are carried out at 4 degrees Celsius with shaking for about 16 hours. 200 μl aliquots of each incubation are filtered onto Millipore HA 0.45 micron 96-well filter plates, pre-moistened with cold 30 mM TRIS-HCl. The filter plates are suctioned dry with vacuum and immediately washed 3× with cold 30 mM TRIS-HCl. The plates are then punched out and the amount of receptor-ligand complex is determined by liquid scintillation counting using 4 ml of Ready Protein Plus™ liquid scintillation cocktail.

Ki, < 500 nM:
C[C@@H]1CN(CCn2c(=O)[nH]c3cc(/C=C4/c5ccc(F)cc5OCc5c(F)cccc54)ccc32)C[C@H](C)O1 [Example 41]
O=c1[nH]c2cc(/C=C3/c4ccc(F)cc4OCc4c(F)cccc43)ccc2n1CCCN1CCOCC1 [Example 42]
O=c1[nH]c2cc(/C=C3/c4ccc(F)cc4OCc4c(F)cccc43)ccc2n1CCN1CCNCC1 [Example 43]
CCN1CC[C@H](n2c(=O)[nH]c3cc(/C=C4/c5ccc(F)cc5OCc5c(F)cccc54)ccc32)C1 [Example 44]
CN1CC[C@H](n2c(=O)[nH]c3cc(/C=C4/c5ccc(F)cc5OCc5c(F)cccc54)ccc32)C1 [Example 45]
CCN1CC[C@@H](n2c(=O)[nH]c3cc(/C=C4/c5ccc(F)cc5OCc5c(F)cccc54)ccc32)C1 [Example 46]
